Values joined by “and” are separate entries in the source; they are usually repeats but may differ in a detail not shown here. Equal entries are not always repeated. Where two headings read alike, the source gives them in different places.
Legend:
[1] = molecular target: T1, human FXR (NR1H4) (Homo sapiens, UniProt Q96RI1); experiment: Human FXR (NR1H4) agonist assessment, FXRE-NanoLuc reporter in HEK293T cells; format: cell-based; details: for EC50: read-out: EC50
T1 sequence (Q96RI1 1-476 isoform Q96RI1-1): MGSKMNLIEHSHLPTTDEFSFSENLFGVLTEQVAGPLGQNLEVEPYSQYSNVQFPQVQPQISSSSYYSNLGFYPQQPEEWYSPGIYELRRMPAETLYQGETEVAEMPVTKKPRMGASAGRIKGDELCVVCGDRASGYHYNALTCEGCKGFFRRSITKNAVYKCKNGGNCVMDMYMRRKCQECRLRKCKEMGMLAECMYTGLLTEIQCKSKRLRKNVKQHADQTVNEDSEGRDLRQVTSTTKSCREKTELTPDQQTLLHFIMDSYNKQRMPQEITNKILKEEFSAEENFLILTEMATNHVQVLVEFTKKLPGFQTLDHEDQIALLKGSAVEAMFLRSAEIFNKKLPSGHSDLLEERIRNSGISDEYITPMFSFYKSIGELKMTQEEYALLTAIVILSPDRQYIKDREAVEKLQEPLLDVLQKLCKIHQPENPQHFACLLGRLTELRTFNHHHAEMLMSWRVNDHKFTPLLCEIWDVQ
In short: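 HEK293T cells stably expressing human FXR with an FXRE-NanoLuc reporter were treated with compounds for 24 hr at 37 °C, with 0.01% DMSO as negative control. Medium was read for luminescence after 5 min with coelenterazine. EC50 was fitted by sigmoid to concentration-response data.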

[2] = molecular target: MRGPRX4 (Homo sapiens, UniProt Q96LA9); experiment: MRGPRX4 activation, Fluo-8 Ca2+ FLIPR assay in HEK293T cells stably expressing MRGPRX4; format: cell-based; set-up: key to MRGPRX4 activation, Average / MRGPRX4 activation, Ave.: fluorescence change dF/F0; details: for EC50: MRGPRX4 activation, Ca2+ fluorescence, no activation in tested range reported as III, read-out: Activity (EC50 μM)
In short: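 Cells seeded overnight to >95% confluence, loaded 40-60 min at room temperature with 2 μM Fluo-8 AM, then kept in HHBS. Baseline read 30 s, compound added, signal followed 150 s more.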

[3] = FXR activation, HEK293T FXRE-NanoLuc reporter, 24 hr

Chain of MRGPRX4 (Q96LA9 whole entry): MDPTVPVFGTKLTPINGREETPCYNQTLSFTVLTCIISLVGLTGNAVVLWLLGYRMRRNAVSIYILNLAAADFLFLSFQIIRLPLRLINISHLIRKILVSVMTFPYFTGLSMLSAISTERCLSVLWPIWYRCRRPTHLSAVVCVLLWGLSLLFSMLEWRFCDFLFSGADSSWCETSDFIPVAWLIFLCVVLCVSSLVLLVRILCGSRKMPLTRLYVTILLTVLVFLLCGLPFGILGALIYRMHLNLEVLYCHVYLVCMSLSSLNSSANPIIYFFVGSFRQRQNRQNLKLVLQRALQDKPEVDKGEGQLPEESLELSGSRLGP

SMILES	Efficacy (maximum measured induction of NanoLuc, normalized to CDCA set as 100%) [1, 3]	EC50 [1, 3] [µM]	MRGPRX4 activation, fluorescence change (dF/F0), Average ([2]; Conc. (Log[M]) −4)	MRGPRX4 activation, fluorescence change (dF/F0), Average ([2]; Conc. (Log[M]) −4.5)	MRGPRX4 activation, fluorescence change (dF/F0), Average ([2]; Conc. (Log[M]) −5)	MRGPRX4 activation, fluorescence change (dF/F0), Average ([2]; Conc. (Log[M]) −5.5)	MRGPRX4 activation, fluorescence change (dF/F0), Average ([2]; Conc. (Log[M]) −6)	MRGPRX4 activation, fluorescence change (dF/F0), Average ([2]; Conc. (Log[M]) −7)	MRGPRX4 activation, fluorescence change (dF/F0), Average ([2]; Conc. (Log[M]) −8)	MRGPRX4 activation, fluorescence change (dF/F0), Average ([2]; Conc. (Log[M]) −9)	EC50 [2] [µM]	also measured
CC[C@H]1[C@@H](O)[C@@H]2[C@H](CC[C@]3(C)[C@@H]([C@H](C)CO)CC[C@@H]23)[C@@]2(C)CCCC[C@@H]12 [compound 73]	A (efficacy >400%)	1 to 10	0.098	0.042	−0.031	−0.031	−0.020	−0.023	−0.023	−0.014	> 100	–
C[C@H](CC/C=C/C(=O)O)[C@H]1CC[C@H]2[C@@H]3CC[C@@H]4C[C@H](O)CC[C@]4(C)[C@H]3C[C@H](O)[C@]12C [RC-7]	C (100%<efficacy <=300%)	1 to 10	0.049	0.030	−0.027	−0.038	−0.035	0.007	−0.030	−0.005	< 50	–
CC[C@H]1[C@@H](O)[C@@H]2[C@H](CC[C@]3(C)[C@@H]([C@H](C)CC(=O)NS(=O)(=O)C(C)(C)C)CC[C@@H]23)[C@@]2(C)CCCC[C@@H]12 [4-3]	B (300%<efficacy <=400%)	1 to 10	–	–	–	–	–	–	–	–	> 100	–
C[C@H](CCC(=O)O)[C@H]1CC[C@H]2[C@@H]3CC[C@@H]4CCCC[C@]4(C)[C@H]3CC[C@]12C [compound 17]	–	1 to 10	0.036 and 0.042	–	–	–	–	–	–	–	< 50	Efficacy (maximum measured induction of NanoLuc, normalized to CDCA set as 100%) [1]: B (key: A: efficacy >400%; B: 300%<efficacy <=400%; C: 100%<efficacy <=300%; D: efficacy <=100%)
CC[C@H]1[C@@H](O)[C@@H]2[C@H](CC[C@]3(C)[C@@H]([C@H](C)CCNC(=O)NS(=O)(=O)c4ccc(Br)cc4OC(F)(F)F)CC[C@@H]23)[C@@]2(C)CC[C@H](F)C[C@@H]12 [9-6]	C (100%<efficacy <=300%)	< 1	–	–	–	–	–	–	–	–	> 100	MRGPRX4 activation, Average ([2]; E3-9, Conc. (Log[M]) −4.0): 0.021; MRGPRX4 activation, Average ([2]; E3-9, Conc. (Log[M]) −4.5): 0.014; MRGPRX4 activation, Average ([2]; E3-9, Conc. (Log[M]) −5.0): 0.016; MRGPRX4 activation, Average ([2]; E3-9, Conc. (Log[M]) −5.4): 0.010; MRGPRX4 activation, Average ([2]; E3-9, Conc. (Log[M]) −5.9): 0.019; MRGPRX4 activation, Average ([2]; E3-9, Conc. (Log[M]) −6.4): 0.018; MRGPRX4 activation, Average ([2]; E3-9, Conc. (Log[M]) −6.9): 0.016; MRGPRX4 activation, Average ([2]; E3-9, Conc. (Log[M]) −7.3): 0.014; MRGPRX4 activation, Average ([2]; E3-9, Conc. (Log[M]) −7.8): 0.012; MRGPRX4 activation, Average ([2]; E3-9, Conc. (Log[M]) −8.3): 0.016
CC[C@H]1[C@@H](O)[C@@H]2[C@H](CC[C@]3(C)[C@@H]([C@H](C)CCNC(=S)NS(=O)(=O)c4cccs4)CC[C@@H]23)[C@@]2(C)CCC(F)(F)C[C@@H]12 [11-3]	–	< 1	–	–	–	–	–	–	–	–	> 100	Efficacy (maximum measured induction of NanoLuc, normalized to CDCA set as 100%) [1]: C (key: A: efficacy >400%; B: 300%<efficacy <=400%; C: 100%<efficacy <=300%; D: efficacy <=100%); MRGPRX4 activation, Average ([2]; E3-9, Conc. (Log[M]) −4.0): 0.003; MRGPRX4 activation, Average ([2]; E3-9, Conc. (Log[M]) −4.5): 0.010; MRGPRX4 activation, Average ([2]; E3-9, Conc. (Log[M]) −5.0): 0.015; MRGPRX4 activation, Average ([2]; E3-9, Conc. (Log[M]) −5.4): 0.015; MRGPRX4 activation, Average ([2]; E3-9, Conc. (Log[M]) −5.9): 0.015; MRGPRX4 activation, Average ([2]; E3-9, Conc. (Log[M]) −6.4): 0.008; MRGPRX4 activation, Average ([2]; E3-9, Conc. (Log[M]) −6.9): 0.010; MRGPRX4 activation, Average ([2]; E3-9, Conc. (Log[M]) −7.3): 0.015; MRGPRX4 activation, Average ([2]; E3-9, Conc. (Log[M]) −7.8): 0.018; MRGPRX4 activation, Average ([2]; E3-9, Conc. (Log[M]) −8.3): 0.051
C[C@H](CCCO)[C@H]1CC[C@H]2[C@@H]3CC[C@@H]4CCCC[C@]4(C)[C@H]3CC[C@]12C [compound 77]	–	1 to 10	0.067	0.014	−0.029	−0.023	−0.017	−0.009	−0.014	−0.012	> 100	Efficacy (maximum measured induction of NanoLuc, normalized to CDCA set as 100%) [1]: B (key: A: efficacy >400%; B: 300%<efficacy <=400%; C: 100%<efficacy <=300%; D: efficacy <=100%)
COC(=O)CC[C@@H](C)[C@H]1CC[C@H]2[C@@H]3/C(=N\OC(C)(C)C(=O)O)C[C@@H]4C[C@H](OC(C)=O)CC[C@]4(C)[C@H]3CC[C@]12C [1-3]	C (100%<efficacy <=300%)	> 10	0.109	0.114	0.047	−0.026	−0.008	0.018	−0.003	0.008	< 50	–
CC[C@H]1[C@@H](O)[C@@H]2[C@H](CC[C@]3(C)[C@@H]([C@H](C)CCNC(=O)C(=O)NS(=O)(=O)c4cc(F)cc(F)c4)CC[C@@H]23)[C@@]2(C)CCCC[C@@H]12 [8-4]	B (300%<efficacy <=400%)	< 1	–	–	–	–	–	–	–	–	> 100	MRGPRX4 activation, Ave. ([2]; E3-7, Conc. (Log[M]) −4): −0.041; MRGPRX4 activation, Ave. ([2]; E3-7, Conc. (Log[M]) −4.5): −0.027; MRGPRX4 activation, Ave. ([2]; E3-7, Conc. (Log[M]) −5): −0.014; MRGPRX4 activation, Ave. ([2]; E3-7, Conc. (Log[M]) −5.5): −0.014; MRGPRX4 activation, Ave. ([2]; E3-7, Conc. (Log[M]) −6): 0.000; MRGPRX4 activation, Ave. ([2]; E3-7, Conc. (Log[M]) −7): 0.000
CC[C@H]1[C@@H](O)[C@@H]2[C@H](CC[C@]3(C)[C@@H]([C@H](C)CCNC(=O)NS(=O)(=O)c4ccc(C5(CO)CCCC5)cc4)CC[C@@H]23)[C@@]2(C)CCCC[C@@H]12 [5-21]	C (100%<efficacy <=300%)	< 1	–	0.016	–	–	–	–	–	–	> 100	MRGPRX4 activation, fluorescence change (dF/F0), Average ([2]; Conc. (Log[M]) −4.0): 0.018; MRGPRX4 activation, fluorescence change (dF/F0), Average ([2]; Conc. (Log[M]) −5.0): 0.020; MRGPRX4 activation, fluorescence change (dF/F0), Average ([2]; Conc. (Log[M]) −5.4): 0.018; MRGPRX4 activation, fluorescence change (dF/F0), Average ([2]; Conc. (Log[M]) −5.9): 0.018; MRGPRX4 activation, fluorescence change (dF/F0), Average ([2]; Conc. (Log[M]) −6.4): 0.016; MRGPRX4 activation, fluorescence change (dF/F0), Average ([2]; Conc. (Log[M]) −6.9): 0.018; MRGPRX4 activation, fluorescence change (dF/F0), Average ([2]; Conc. (Log[M]) −7.3): 0.016; MRGPRX4 activation, fluorescence change (dF/F0), Average ([2]; Conc. (Log[M]) −7.8): 0.020; MRGPRX4 activation, fluorescence change (dF/F0), Average ([2]; Conc. (Log[M]) −8.3): 0.018
CC[C@H]1[C@@H](O)[C@@H]2[C@H](CC[C@]3(C)[C@@H]([C@H](C)CCC(=O)OC)CC[C@@H]23)[C@@]2(C)CCCC[C@@H]12 [1-4]	C (100%<efficacy <=300%)	1 to 10	0.098	0.004	−0.014	−0.004	−0.011	−0.006	−0.009	−0.020	> 100	–
CC(C[C@@H](C)[C@H]1CC[C@H]2[C@@H]3CC[C@@H]4CCCC[C@]4(C)[C@H]3CC[C@]12C)C(=O)O (stereo partly shown) [2-1]	C (100%<efficacy <=300%)	> 10	0.071	−0.014	−0.045	−0.072	−0.095	−0.110	−0.072	−0.091	> 100	–

— patent US20260116910A1, “POLYCYCLIC COMPOUNDS AND METHODS THEREOF” (HEPAITECH (BEIJING) BIOPHARMA TECHNOLOGY CO., LTD., priority 2021, published 2026)
